# Data published in US20150141248A1, “ANTIFUNGAL COMPOSITIONS” (DSM IP ASSETS B.V., priority 2011, published 2015).
# Assays:
# [1] = tested on: Fusarium proliferatum; assay: Treatment of wounded bananas inoculated with Fusarium proliferatum (mould growth); format: in vivo; conditions: for Number of moulded wounds/total number of 12 wounds: bananas 20° C.; for Observed antifungal activity O: bananas
# Protocol: Four organic, unripe (green) bananas were used per treatment. The peel of each banana was wounded thrice using a cork borer according to the method described by de Lapeyre de Bellaire and Dubois (1987). Subsequently, each wound was inoculated with 15 μl of a Fusarium proliferatum suspension containing 1×10^5 of spores/ml. […] In addition, the antifungal compositions comprised 1.00% (w/w) methylhydroxyethylcellulose (MHEC), 0.40% (w/w) xanthan gum, 0.20% (w/w) anti-foaming agent, 0.30% (w/w) citric acid, 0.39% (w/w) lactic acid and 0.11% (w/w) potassium sorbate. The pH of the composition was 4.0. […] The treated, unripe bananas were incubated in a closed box in the dark at 20° C. and a relative air humidity of 95%, which was obtained in the presence of a saturated Na2HPO4 aqueous solution. During the first 20 days of incubation, a ripe (yellow) banana was included in the closed box to elevate the ethylene gas level and thus induce ripening of the treated, unripe bananas. […]
# The expected antifungal activity (E in %) of the combined antifungal composition comprising both active ingredients was calculated according to the Colby equation (Colby, 1967): […]
# wherein X and Y are the observed antifungal activities (in %) of the individual active ingredients X and Y, respectively. If the observed antifungal activity (O in %) of the combination exceeds the expected antifungal activity (E in %) of the combination and the synergy factor O/E is thus >1.0, the combined application of the active ingredients leads to a synergistic antifungal effect.
# [2] = tested on: Fusarium proliferatum; assay: In vitro antifungal activity, 96-well microtiter plates; format: cell-based; conditions: in vitro 25° C., 3 days
# Protocol: Subsequently, 100 μl of a Botrytis cinerea suspension prepared in PCB medium was used to inoculated each well with 2.5×10^3 spores/ml.
# , the in vitro antifungal activity (%) of the individual active ingredients was assessed by calculating the reduction in mould growth observed in the presence of the active ingredient in comparison to the mould growth observed in the absence of the active ingredient. The expected antifungal activity (E in %) of the active ingredient combination was calculated according to the Colby equation (Colby, 1967): […]
# The experiment was conducted as described in Example 13, except for the fact that the following compositions were tested:
# Furthermore, Fusarium proliferatum was used for inoculation. The antifungal activity (in %) of the individual and combined active ingredients was determined according to the method described in Example 13.
# [3] = tested on: Botrytis cinerea; assay: as above; format: cell-based; conditions: in vitro 25° C., 5 days
# Protocol: The following compositions were tested: […] Subsequently, 100 μl of a Botrytis cinerea suspension prepared in PCB medium was used to inoculated each well with 2.5×10^3 spores/ml. […] The expected antifungal activity (E in %) of the active ingredient combination was calculated according to the Colby equation (Colby, 1967): […] wherein X and Y are the observed antifungal activities (in %) of the individual active ingredients X and Y, respectively.
smiles,measurement,setting,value
"CCCC1COC(Cn2cncn2)(c2ccc(Cl)cc2Cl)O1 (stereo not drawn) [Propiconazole, propiconazole]",Number of moulded wounds/total number of 12 wounds,"[1]; 50 ppm natamycin, 250 ppm propiconazole or both, Day 29",5/12
same,Number of moulded wounds/total number of 12 wounds,"[1]; 50 ppm natamycin, 250 ppm propiconazole or both, Day 29, listed as propiconazole",5
same,Number of moulded wounds/total number of 12 wounds,"[1]; 50 ppm natamycin, 250 ppm propiconazole or both, Day 32",8/12
same,Number of moulded wounds/total number of 12 wounds,"[1]; 50 ppm natamycin, 250 ppm propiconazole or both, Day 32, listed as propiconazole",8
same,Number of moulded wounds/total number of 12 wounds,"[1]; 50 ppm natamycin, 250 ppm propiconazole or both, Day 34",10/12
same,Number of moulded wounds/total number of 12 wounds,"[1]; 50 ppm natamycin, 250 ppm propiconazole or both, Day 34, listed as propiconazole",10
same,Number of moulded wounds/total number of 12 wounds,"[1]; 50 ppm natamycin, 250 ppm propiconazole or both, Day 36",12/12
same,Number of moulded wounds/total number of 12 wounds,"[1]; 50 ppm natamycin, 250 ppm propiconazole or both, Day 36, listed as propiconazole",12
same,Number of moulded wounds/total number of 12 wounds,"[1]; 50 ppm natamycin, 250 ppm propiconazole or both, Day 39",12/12
same,Number of moulded wounds/total number of 12 wounds,"[1]; 50 ppm natamycin, 250 ppm propiconazole or both, Day 39, listed as propiconazole",12
same,Number of moulded wounds/total number of 12 wounds,"[1]; 50 ppm natamycin, 250 ppm propiconazole or both, Day 42",12/12
same,Number of moulded wounds/total number of 12 wounds,"[1]; 50 ppm natamycin, 250 ppm propiconazole or both, Day 42, listed as propiconazole",12
same,Number of moulded wounds/total number of 12 wounds,"[1]; 250 ppm natamycin, 500 ppm propiconazole or both, Day 34",10/12
same,Number of moulded wounds/total number of 12 wounds,"[1]; 250 ppm natamycin, 500 ppm propiconazole or both, Day 34, listed as propiconazole",10
same,Number of moulded wounds/total number of 12 wounds,"[1]; 250 ppm natamycin, 500 ppm propiconazole or both, Day 36",10/12
same,Number of moulded wounds/total number of 12 wounds,"[1]; 250 ppm natamycin, 500 ppm propiconazole or both, Day 36, listed as propiconazole",10
same,Number of moulded wounds/total number of 12 wounds,"[1]; 500 ppm natamycin, 150 ppm propiconazole or both, Day 26",9/12
same,Number of moulded wounds/total number of 12 wounds,"[1]; 500 ppm natamycin, 150 ppm propiconazole or both, Day 26, listed as propiconazole",9
same,Number of moulded wounds/total number of 12 wounds,"[1]; 500 ppm natamycin, 150 ppm propiconazole or both, Days 27-29",12/12
same,Number of moulded wounds/total number of 12 wounds,"[1]; 500 ppm natamycin, 150 ppm propiconazole or both, Days 27-29, listed as propiconazole",12
same,Number of moulded wounds/total number of 12 wounds,"[1]; 500 ppm natamycin, 150 ppm propiconazole or both, Days 31-32",12/12
same,Number of moulded wounds/total number of 12 wounds,"[1]; 500 ppm natamycin, 150 ppm propiconazole or both, Days 31-32, listed as propiconazole",12
same,Number of moulded wounds/total number of 12 wounds,"[1]; 500 ppm natamycin, 1000 ppm propiconazole or both, Day 39",4/12
same,Number of moulded wounds/total number of 12 wounds,"[1]; 500 ppm natamycin, 1000 ppm propiconazole or both, Day 39, listed as propiconazole",4
same,Number of moulded wounds/total number of 12 wounds,"[1]; 500 ppm natamycin, 1000 ppm propiconazole or both, Day 42",4/12
same,Number of moulded wounds/total number of 12 wounds,"[1]; 500 ppm natamycin, 1000 ppm propiconazole or both, Day 42, listed as propiconazole",4
same,Observed antifungal activity O,"[1]; 50 ppm natamycin, 250 ppm propiconazole or both, 29 days",92%
same,Observed antifungal activity O,"[1]; 50 ppm natamycin, 250 ppm propiconazole or both, 32 days",90%
same,Observed antifungal activity O,"[1]; 50 ppm natamycin, 250 ppm propiconazole or both, 34 days",85%
same,Observed antifungal activity O,"[1]; 50 ppm natamycin, 250 ppm propiconazole or both, 36 days",81%
same,Observed antifungal activity O,"[1]; 50 ppm natamycin, 250 ppm propiconazole or both, 39 days",57%
same,Observed antifungal activity O,"[1]; 50 ppm natamycin, 250 ppm propiconazole or both, 42 days",47%
same,Observed antifungal activity O,"[1]; 250 ppm natamycin, 50 ppm propiconazole or both, 23 days",36%
same,Observed antifungal activity O,"[1]; 250 ppm natamycin, 50 ppm propiconazole or both, 27 days",30%
same,Observed antifungal activity O,"[1]; 250 ppm natamycin, 50 ppm propiconazole or both, 29 days",35%
same,Observed antifungal activity O,"[1]; 250 ppm natamycin, 500 ppm propiconazole or both, 34 days",74%
same,Observed antifungal activity O,"[1]; 250 ppm natamycin, 500 ppm propiconazole or both, 36 days",62%
same,Observed antifungal activity O,"[1]; 250 ppm natamycin, 500 ppm propiconazole or both, 39 days",43%
same,Observed antifungal activity O,"[1]; 250 ppm natamycin, 500 ppm propiconazole or both, 42 days",33%
same,Observed antifungal activity O,"[1]; 500 ppm natamycin, 150 ppm propiconazole or both, 27 days",57%
same,Observed antifungal activity O,"[1]; 500 ppm natamycin, 150 ppm propiconazole or both, 28 days",56%
same,Observed antifungal activity O,"[1]; 500 ppm natamycin, 150 ppm propiconazole or both, 29 days",54%
same,Observed antifungal activity O,"[1]; 500 ppm natamycin, 150 ppm propiconazole or both, 31 days",44%
same,Observed antifungal activity O,"[1]; 500 ppm natamycin, 150 ppm propiconazole or both, 32 days",33%
same,Observed antifungal activity O,"[2]; natamycin 2.5 ppm, propiconazole 7.5 ppm or both",0%
same,Observed antifungal activity O,[2]; propiconazole 10.0 ppm alone or with natamycin 2.5 ppm,0%
same,Observed antifungal activity O,"[3]; natamycin 0.63 ppm, propiconazole 1.00 ppm or both",0%
same,Observed antifungal activity O,"[3]; natamycin 1.25 ppm, propiconazole 0.50 ppm, prothioconazole 0.13 ppm, or natamycin 1.25 ppm with either",0%
